Experimental data as given in ChEMBL document CHEMBL4428124, “Advances in rationally designed dual inhibitors of HIV-1 reverse transcriptase and integrase” (Bioorg Med Chem, 2016).

Legend:
[1] = biological target: Human immunodeficiency virus type 1 reverse transcriptase (Human immunodeficiency virus 1, UniProt Q72547); test: Inhibition of recombinant HIV1 RT
[2] = tested on: Human immunodeficiency virus 1; test: Antiviral activity against HIV1; type: functional, organism-based

## O=c1[nH]c(SCc2ccccc2)nc(C(O)c2ccccc2)c1O (centres undefined)
[1]
  IC50: > 200 µM
[2]
  EC50: 36.5 µM

## O=C(c1ccc(Cl)cc1)c1nc(SCc2ccccc2)[nH]c(=O)c1O
[1]
  IC50: 113 µM
[2]
  EC50: 164 µM

## O=C(c1ccc(Br)cc1)c1nc(SCc2ccccc2)[nH]c(=O)c1O
[1]
  IC50: > 200 µM
[2]
  EC50: 175 µM

## O=C(c1ccccc1)c1nc(SCc2ccccc2)[nH]c(=O)c1O
[1]
  IC50: 95.1 µM
[2]
  EC50: 36 µM

## CC(C)Nc1cccnc1N1CCN(C(=O)c2cc3cc(NS(C)(=O)=O)ccc3[nH]2)CC1 [DELAVIRDINE]
[2]
  EC50: 0.021 µM
